# Test results reported in PMC2213614 (The Journal of Cell Biology, 2008).
# Biological target: Sec3N (GST-Sec3N, N terminus of Sec3, aa 1-320) (Saccharomyces cerevisiae, UniProt P33332)
# Format: binding
# Conditions: 25°C
# Chain of Sec3N (GST-Sec3N, N terminus of Sec3, aa 1-320) (P33332 1-320 limits assumed): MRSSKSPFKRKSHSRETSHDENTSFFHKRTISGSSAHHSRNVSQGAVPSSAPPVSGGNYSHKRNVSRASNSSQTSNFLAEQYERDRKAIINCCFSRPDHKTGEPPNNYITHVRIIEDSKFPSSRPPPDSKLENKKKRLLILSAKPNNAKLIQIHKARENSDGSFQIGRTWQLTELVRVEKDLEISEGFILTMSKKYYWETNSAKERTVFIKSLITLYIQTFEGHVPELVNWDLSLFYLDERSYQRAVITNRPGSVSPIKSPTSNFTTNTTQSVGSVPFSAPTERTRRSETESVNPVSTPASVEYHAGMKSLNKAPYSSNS
substance,measurement,value
"phosphatidylinositol 4,5-bisphosphate",Kd,14.4 ± 4 µM
